The values below come from paper PMC3928151 (ACS chemical biology, 2013).

For this test, the target named is CaCrg1 (Candida albicans, UniProt A0A1D8PSY8). The test can be described thus: […] methyl transfer, acid-labile volatility. The test is classed as biochemical. The settings on record: 0.2 mM cantharidin, 20 µM S-adenosyl-[methyl-14C]-L-methionine, 0.1 M sodium phosphate pH 7.4, 30 °C, 120 min.

SMILES strings stand for the structures.

`C[C@@]12C(=O)OC(=O)[C@]1(C)[C@H]1CC[C@@H]2O1` [cantharidin]: the “14C methyl transfer, acid-labile volatility (14C-methanol)” value was “demonstrating that CaCrg1 is a functional MTase methylating cantharidin in vitro”.
